Results taken from patent EP4667483A1, “HUMAN TRANSFERRIN RECEPTOR-BINDING PEPTIDE” (JCR Pharmaceuticals Co., Ltd., priority 2023, dated 2024).
Numbered stars: 1 amine (or outer) side, 2 acyl side, 3 side chain; on linkers, the order of the positions; unused ones are H or OH. Bridge positions count the residues as written; N and C are the ends. Square brackets hold non-standard residues; d marks the D form. Side chains are listed from the residue outwards. Peptide text beside a SMILES is read from it. * marks the point of attachment. Trp(1-CH2COOH) = N[C@@H](Cc1cn(CC(=O)O)c2ccccc12)C(=O)O; CH2CON(CH2CH2)2NCH2COOH = O=C(O)CN1CCN(C(=O)C*)CC1; NMePhe(4-COOH) = CN[C@@H](Cc1ccc(C(=O)O)cc1)C(=O)O; X1 = O=C([C@H](Cc1cccc(C(=O)[*:3])c1)N[*:1])[*:2]; Nle(6-morpholino) = N[C@@H](CCCCN1CCOCC1)C(=O)O; Phe(3-COOH) = N[C@@H](Cc1cccc(C(=O)O)c1)C(=O)O; Trp(7-aza) = N[C@@H](Cc1c[nH]c2ncccc12)C(=O)O; NMePhe(3-Cl) = CN[C@@H](Cc1cccc(Cl)c1)C(=O)O; Piperazinyl(4-CH2COOH) = O=C(O)CN1CCN(*)CC1; Trp(1-Me) = Cn1cc(C[C@H](N)C(=O)O)c2ccccc21; 3Pal(6-NH2) = Nc1ccc(C[C@H](N)C(=O)O)cn1; NMeY = CN[C@@H](Cc1ccc(O)cc1)C(=O)O; Nva(3-Et) = CCC(CC)[C@H](N)C(=O)O; 4Pal = N[C@@H](Cc1ccncc1)C(=O)O; PEG4 = NCCOCCOCCOCCOCCC(=O)O; Carboxymethyl = O=C(O)C*; CO = O=C([*:1])[*:2]

What was measured:
[1] = biological target: T1, human transferrin receptor (hTfR) (Homo sapiens, UniProt P02786); experiment: SPR measurement under pH 7.4 conditions (Biacore T200, CM3 chip, hTfR captured by His Tag antibody); format: binding; settings: read-out: hTfR SPR pH7.4 KD
T1 sequence (P02786 whole entry): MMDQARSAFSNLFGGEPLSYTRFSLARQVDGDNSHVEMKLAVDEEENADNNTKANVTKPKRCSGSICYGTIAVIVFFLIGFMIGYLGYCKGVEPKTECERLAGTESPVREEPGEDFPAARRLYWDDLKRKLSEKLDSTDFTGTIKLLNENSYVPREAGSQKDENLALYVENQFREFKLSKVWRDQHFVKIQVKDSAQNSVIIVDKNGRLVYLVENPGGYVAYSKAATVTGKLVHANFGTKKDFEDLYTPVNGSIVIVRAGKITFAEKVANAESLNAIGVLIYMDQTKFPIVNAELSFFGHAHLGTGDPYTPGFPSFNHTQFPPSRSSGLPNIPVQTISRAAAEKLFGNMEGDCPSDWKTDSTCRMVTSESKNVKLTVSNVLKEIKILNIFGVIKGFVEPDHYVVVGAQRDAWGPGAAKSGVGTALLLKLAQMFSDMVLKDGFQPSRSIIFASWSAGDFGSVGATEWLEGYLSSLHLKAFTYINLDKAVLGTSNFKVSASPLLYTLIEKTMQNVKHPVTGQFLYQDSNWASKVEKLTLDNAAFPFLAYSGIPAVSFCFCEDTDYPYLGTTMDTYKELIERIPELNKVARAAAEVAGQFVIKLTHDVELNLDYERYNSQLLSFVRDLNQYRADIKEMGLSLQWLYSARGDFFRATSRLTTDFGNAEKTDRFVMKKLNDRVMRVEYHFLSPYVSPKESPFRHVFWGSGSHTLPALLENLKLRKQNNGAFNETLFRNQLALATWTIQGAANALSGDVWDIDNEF

[2] = biological target: T1, human transferrin receptor (hTfR); experiment: SPR measurement under pH 6.0 conditions (Biacore T200, NTA chip, immobilized hTfR); format: binding; settings: read-out: hTfR SPR pH6.0 KD
Experimental: Molecular interactions between the synthesized peptides and the transferrin receptor (hTfR) were evaluated by surface plasmon resonance (SPR) using the following method. The specific assay procedure is described below.
An NTA sensor chip (Cytiva) was inserted in a Biacore T200 (Cytiva), a priming operation was performed 3 times with a running buffer: HBS-P+ pH 6.0 (Cytiva), and an equilibrium state was created at a flow rate of 30 µL/min. A ligand immobilization operation was carried out at a flow rate of 10 µL/min.
The surface of the NTA sensor chip was washed with 350 mM EDTA solution, nickel ions were loaded into the carbomethyldextran chains of the sensor chip with a 500 µM aqueous nickel chloride solution, and then washing was performed with 3 mM EDTA solution. After mixing 50 µL of each of 60 mM EDC solution (Cytiva) and 650 mM NHS solution (Cytiva), the mixture was reacted for 420 seconds at a flow rate of 10 µL/min. 150 µL of 0.2 µM hTfR solution was prepared by diluting with 10 mM acetic acid solution (pH 5.0), and reacted for 420 seconds at a flow rate of 10 µL/min to immobilize hTfR on the NTA sensor chip. For the human transferrin receptor (hTfR), the recombinant hTfR described in Example 2 of WO2018/124121 was used. After immobilization, capping was performed by reacting with 1.0 M ethanolamine aqueous solution (Cytiva) at a flow rate of 10 µL/min for 420 seconds. Peptide lysate prepared in DMSO to 10 mM was diluted with the running buffer to a final concentration of 10 µM peptide lysate, and then peptide solutions of 250 nM, 125 nM, 62.5 nM, 25 nM, and 12.5 nM were prepared. The kinetics of the peptide against hTfR was obtained by SPR measurement using the above samples.
The kinetic evaluation model was single-cycle kinetics, and curve fitting was performed using Biacore T200 Evaluation Software Version 3.0 (Cytiva). The binding of the peptide to hTfR was evaluated by performing curve fitting on the obtained sensorgram by the least squares method and obtaining the kon value, the koff value, and the KD value.

[3] = SPR, pH 7.4, peptide with the linker named in the table
[4] = SPR, pH 6.0, peptide with the linker named in the table

| Kd ([1]; pH 7.4, single-cycle kinetics) | Kd ([2]; pH 6.0, single-cycle kinetics) | Kd [1, 3] | Kd [2, 4] | SMILES |
| --- | --- | --- | --- | --- |
| 29.1 nM | 774 nM | – | – | CC[C@H](C)[C@@H]1NC(=O)[C@H](Cc2ccc(OCC(=O)O)cc2)NC(=O)[C@H](Cc2ccc(N)nc2)NC(=O)[C@H](CC(N)=O)NC(=O)[C@H](Cc2c[nH]c3ncccc23)NC(=O)[C@H](C(C)C)NC(=O)[C@H](Cc2cccc(Cl)c2)N(C)C(=O)[C@H](C(C)C)NC(=O)[C@H](C)NC(=O)CSC[C@@H](C(=O)NCCOCCOCCOCCOCCC(N)=O)NC(=O)[C@H](Cc2ccc(O)cc2)N(C)C(=O)[C@H](Cc2ccncc2)NC(=O)[C@H](CCCCNC(=O)N2CCN(CC(=O)O)CC2)NC(=O)[C@H](CCCCN2CCOCC2)NC(=O)[C@H]([C@@H](C)CC)NC1=O [compound 9] ({CH2CO}-AV[NMePhe(3-Cl)]V[Trp(7-aza)]N[3Pal(6-NH2)]Y(Carboxymethyl)II[Nle(6-morpholino)]K([CO-Piperazinyl(4-CH2COOH)])[4Pal][NMeY]C[PEG4]-NH2; thioether N-15) |
| 2.18 nM | 27 nM | – | – | CC[C@H](C)[C@@H]1NC(=O)[C@H](Cc2ccc(OCC(=O)N3CCN(CC(=O)O)CC3)cc2)NC(=O)[C@H](Cc2ccc(O)cc2)NC(=O)[C@H](CC(N)=O)NC(=O)[C@H](Cc2cn(CC(=O)O)c3ccccc23)NC(=O)[C@H](C(C)C)NC(=O)[C@H](Cc2cccc(Cl)c2)N(C)C(=O)[C@H](C(C)C)NC(=O)[C@H](C)NC(=O)CSC[C@@H](C(=O)NCCOCCOCCOCCOCCC(N)=O)NC(=O)[C@H](Cc2ccc(O)cc2)N(C)C(=O)[C@H](Cc2cccc(C(=O)O)c2)NC(=O)[C@H](CCCCN2CCOCC2)NC(=O)[C@H](CCCCN2CCOCC2)NC(=O)[C@H]([C@@H](C)CC)NC1=O [compound 32] ({CH2CO}-AV[NMePhe(3-Cl)]V[Trp(1-CH2COOH)]NYY(CH2CON(CH2CH2)2NCH2COOH)II[Nle(6-morpholino)][Nle(6-morpholino)][Phe(3-COOH)][NMeY]C[PEG4]-NH2; thioether N-15) |
| 15800 nM | 576 nM | – | – | CCC(CC)[C@@H]1NC(=O)[C@H](Cc2ccc(OCC(=O)O)cc2)NC(=O)[C@H](Cc2ccc(N)nc2)NC(=O)[C@H](CC(N)=O)NC(=O)[C@H](Cc2cn(CC(=O)O)c3ccccc23)NC(=O)[C@H](C(C)C)NC(=O)[C@H](Cc2cccc(Cl)c2)N(C)C(=O)[C@H](C(C)C)NC(=O)[C@H](C)NC(=O)CSC[C@@H](C(=O)NCCOCCOCCOCCOCCC(N)=O)NC(=O)[C@H](Cc2ccc(C(=O)O)cc2)N(C)C(=O)[C@H](Cc2ccncc2)NC(=O)[C@H](CCCCN2CCOCC2)NC(=O)[C@H](CCC(N)=O)NC(=O)[C@H]([C@@H](C)CC)NC1=O [compound 49] ({CH2CO}-AV[NMePhe(3-Cl)]V[Trp(1-CH2COOH)]N[3Pal(6-NH2)]Y(Carboxymethyl)[Nva(3-Et)]IQ[Nle(6-morpholino)][4Pal][NMePhe(4-COOH)]C[PEG4]-NH2; thioether N-15) |
| 2.5 nM | 36.6 nM | – | – | CC[C@H](C)[C@@H]1NC(=O)[C@H](Cc2ccc(OC)cc2)NC(=O)[C@H](Cc2ccc(N)nc2)NC(=O)[C@H](CC(N)=O)NC(=O)[C@H](Cc2c[nH]c3ncccc23)NC(=O)[C@H](C(C)C)NC(=O)[C@H](Cc2cccc(Cl)c2)N(C)C(=O)[C@H](C(C)C)NC(=O)[C@H](C)NC(=O)CSC[C@@H](C(=O)NCCOCCOCCOCCOCCC(N)=O)NC(=O)[C@H](Cc2ccc(O)cc2)N(C)C(=O)[C@H](Cc2ccncc2)NC(=O)[C@H](CCCNC(=N)N)NC(=O)[C@H](CCC(=O)NC[C@H](O)[C@@H](O)[C@H](O)[C@H](O)CO)NC(=O)[C@H]([C@@H](C)CC)NC1=O [compound 10] |
| 0.134 nM | 2.26 nM | – | – | CC[C@H](C)[C@@H]1NC(=O)[C@H](Cc2ccc(OCC(=O)O)cc2)NC(=O)[C@H](Cc2ccc(O)cc2)NC(=O)[C@H](CC(N)=O)NC(=O)[C@H](Cc2c[nH]c3ccccc23)N(C)C(=O)[C@H](C(C)C)NC(=O)[C@H](Cc2cccc(Cl)c2)N(C)C(=O)[C@H](C(C)C)NC(=O)[C@H](C)NC(=O)CSC[C@@H](C(=O)NCCOCCOCCOCCOCCC(N)=O)NC(=O)[C@H](Cc2ccc(O)cc2)N(C)C(=O)[C@H](Cc2cccc(C(=O)O)c2)NC(=O)[C@H](CCCNC(=N)N)NC(=O)[C@H](CCCCN)NC(=O)[C@H]([C@@H](C)CC)NC1=O [compound 177] |
| – | – | 1.57 nM | 5.22 nM | CCC(CC)[C@@H]1NC(=O)[C@H](Cc2ccc(O)cc2)NC(=O)[C@H](Cc2ccc(O)cc2)NC(=O)[C@H](CC(N)=O)NC(=O)[C@H](Cc2cn(C)c3ccccc23)NC(=O)[C@H](C(C)C)NC(=O)[C@H](Cc2cccc(Cl)c2)N(C)C(=O)[C@H](C(C)C)NC(=O)[C@H](C)NC(=O)CSC[C@@H](C(=O)NCCOCCOCCOCCOCCC(N)=O)NC(=O)[C@H](Cc2ccc(O)cc2)N(C)C(=O)[C@H](Cc2ccncc2)NC(=O)[C@H](CCCNC(=N)N)NC(=O)[C@H](CCCCN)NC(=O)[C@H]([C@@H](C)CC)NC1=O [compound 127] ({CH2CO}-AV[NMePhe(3-Cl)]V[Trp(1-Me)]NYY[Nva(3-Et)]IKR[4Pal][NMeY]C[PEG4]-NH2; thioether N-15) |
| 1.88 nM | 30 nM | – | – | CC[C@H](C)[C@@H]1NC(=O)[C@H](Cc2ccc(OCC(=O)N3CCN(CC(=O)O)CC3)cc2)NC(=O)[C@H](Cc2ccc(O)cc2)NC(=O)[C@H](CC(N)=O)NC(=O)[C@H](Cc2c[nH]c3ncccc23)NC(=O)[C@H](C(C)C)NC(=O)[C@H](Cc2cccc(Cl)c2)N(C)C(=O)[C@H](C(C)C)NC(=O)[C@H](C)NC(=O)CSC[C@@H](C(=O)NCCOCCOCCOCCOCCC(N)=O)NC(=O)[C@H](Cc2ccc(O)cc2)N(C)C(=O)[C@H](Cc2ccncc2)NC(=O)[C@H](CCCNC(=N)N)NC(=O)[C@H](CCCCNC(=O)N2CCN(CC(=O)O)CC2)NC(=O)[C@H]([C@@H](C)CC)NC1=O [compound 18] |
| 6.31 nM | 117 nM | – | – | CC[C@H](C)[C@@H]1NC(=O)[C@H](Cc2ccc(OC)cc2)NC(=O)[C@H](Cc2ccc(N)nc2)NC(=O)[C@H](CC(N)=O)NC(=O)[C@H](Cc2c[nH]c3ncccc23)NC(=O)[C@H](C(C)C)NC(=O)[C@H](Cc2cccc(Cl)c2)N(C)C(=O)[C@H](C(C)C)NC(=O)[C@H](C)NC(=O)CSC[C@@H](C(=O)NCCOCCOCCOCCOCCC(N)=O)NC(=O)[C@H](Cc2ccc(O)cc2)N(C)C(=O)[C@H](Cc2ccncc2)NC(=O)[C@H](CCCCNC(=O)N2CCN(CC(=O)O)CC2)NC(=O)[C@H](CCCCN2CCOCC2)NC(=O)[C@H]([C@@H](C)CC)NC1=O [compound 5] ({CH2CO}-AV[NMePhe(3-Cl)]V[Trp(7-aza)]N[3Pal(6-NH2)]Y(Me)II[Nle(6-morpholino)]K([CO-Piperazinyl(4-CH2COOH)])[4Pal][NMeY]C[PEG4]-NH2; thioether N-15) |
| 1.74 nM | 37 nM | – | – | CC[C@H](C)[C@@H]1NC(=O)[C@H](Cc2ccc(OCC(=O)N3CCN(CC(=O)O)CC3)cc2)NC(=O)[C@H](Cc2ccc(O)cc2)NC(=O)[C@H](CC(N)=O)NC(=O)[C@H](Cc2cn(CC(=O)O)c3ccccc23)NC(=O)[C@H](C(C)C)NC(=O)[C@H](Cc2cccc(Cl)c2)N(C)C(=O)[C@H](C(C)C)NC(=O)[C@H](C)NC(=O)CSC[C@@H](C(=O)NCCOCCOCCOCCOCCC(N)=O)NC(=O)[C@H](Cc2ccc(O)cc2)N(C)C(=O)[C@H](Cc2cccc(C(=O)O)c2)NC(=O)[C@H](CCCCN2CCOCC2)NC(=O)[C@H](CCC(N)=O)NC(=O)[C@H]([C@@H](C)CC)NC1=O [compound 35] ({CH2CO}-AV[NMePhe(3-Cl)]V[Trp(1-CH2COOH)]NYY(CH2CON(CH2CH2)2NCH2COOH)IIQ[Nle(6-morpholino)][Phe(3-COOH)][NMeY]C[PEG4]-NH2; thioether N-15) |
| – | – | 1.84 nM | 12.6 nM | CC[C@H](C)[C@@H]1NC(=O)[C@H](Cc2ccc(OC)cc2)NC(=O)[C@H](Cc2ccc(N)nc2)NC(=O)[C@H](CC(N)=O)NC(=O)[C@H](Cc2c[nH]c3ccccc23)NC(=O)[C@H](C(C)C)NC(=O)[C@H](Cc2cccc(Cl)c2)N(C)C(=O)[C@H](C(C)C)NC(=O)[C@H](C)NC(=O)CSC[C@@H](C(=O)NCCOCCOCCOCCOCCC(N)=O)NC(=O)[C@H](Cc2ccc(C(=O)O)cc2)N(C)C(=O)[C@H](Cc2cccc(C(=O)NCCOCCOCCOCCOCCC(=O)O)c2)NC(=O)[C@H](CCCNC(=N)N)NC(=O)[C@H](CCC(N)=O)NC(=O)[C@H]([C@@H](C)CC)NC1=O [compound 115] ({CH2CO}-AV[NMePhe(3-Cl)]VWN[3Pal(6-NH2)]Y(Me)IIQR[X1](PEG4)[NMePhe(4-COOH)]C[PEG4]-NH2; thioether N-15) |
